From patent publication US20220220561A1, “METHODS AND CLINICAL PROTOCOLS AND KITS PERTAINING TO MAKING AND USING THERAPEUTIC COMPOSITIONS FOR CELLULAR TREATMENT” (ADVANCED REGEN MEDICAL TECHNOLOGIES, LLC, priority 2019, published 2022)

Columns and labels:
[1] = system: serine-threonine protein phosphatases; conditions: cited from earlier work
heterochronic cultures = test: exosome production, total RNA and miRNA payload in heterochronic cultures; assay type: cell-based, human
Restored cells = test: transwell co-culture restoration in the presence or absence of manumycin; assay type: cell-based, human
Text: Receiver cell samples (i.e., R1, R2, and R3) were individually paired with donor cell samples (i.e., D1, D2, and D3) and the pairs co-cultured in a transwell culture cell for four weeks. The morphology of the cells was studied at 2 weeks into the co-culture and at 4 weeks of co-culture. Gene expression arrays, protein arrays, and telomere length experiments compared freshly defrosted cells from the collection tubes (referred to as the baseline donor cell sample or baseline receiver cell sample) with cells at the 4-week study endpoint (referred to as restored cell samples).
The nature of the soluble particles passing through the permeable membrane in the transwell co-culture experiments was investigated. Specifically, transwell co-culture experiments were carried out in the presence or absence of manumycin. Manumycin, N-[(1S,5S,6R)-5-hydroxy-5-[(1E,3E,5E)-7-[(2-hydroxy-5-oxo-1-cyclopenten-1-yl)amino]-7-oxo-1,3,5-heptatrien-1-yl]-2-oxo-7-oxabicyclo[4.1.0]hept-3-en-3-yl]-2E,4E,6R-trimethyl,2,4-decadienamide, is an antibiotic that acts a potent and selective farnesytransferase inhibitor. Manumycin is also known to inhibit the release of exosomes. […] Further support for the role of exosome/microvesicles in mediating the disclosed cellular restoration process is shown in FIG. 55.

Aged TNCs = test: cell count and Trypan blue viability of aged TNCs cultured with CaMKP inhibitor; assay type: cell-based, human
Protocol: Aged TNCs (20×10^6 cells per sample) were cultured with CaMKP inhibitor (FT-0640107 shown below) at the following concentrations 25 uM, 10 uM, 5 uM, 1 uM & 0 (vehicle). After 48 and 72 hours, cells were harvested, counted using Turk's solution and percent viability assessed using Trypan blue exclusion.
At 72 hours following treatment with the CaMPK inhibitor, FT-0640107, or vehicle, cells were harvested, counted and viability measured using Trypan blue exclusion.

Q: What does the source list for `O=C(/C=C/c1ccc(/C=C/C(=O)Nc2ccc(C3=NCCN3)cc2)cc1)Nc1ccc(C2=NCCN2)cc1` [GW4869]?
A: toxicity to aged cultures (aged MPB): extremely toxic; restorative phenotype (aged MPB; blocking global exosome production, data not shown): abrogated the restorative phenotype

Q: Which “inhibition of serine-threonine protein phosphatases” value [1] does the source give for dragmacidin D here?
A: Its value is “potent inhibitor”.

Q: With `CC(NS(=O)(=O)c1ccc2[nH]c(=O)c(=O)[nH]c2c1)C(=O)O` (centres unmarked) [BCI-137] as the compound, how does the “exosome production and total RNA content” value (heterochronic cultures) read?
A: The value was “minimal effect”.

Q: What about the “small and miRNA payload” value (heterochronic cultures) of the same compound?
A: The value was “depleted”.

Q: What about the “aged MPB clonogenicity” value (aged MPB; heterochronic cultures treated with inhibitor) of the same compound?
A: The value was “significant decrease”.

Q: Which “morphology of restored cells” value (Restored cells; 5 μM) does the source give for `CCCC[C@@H](C)/C=C(C)/C=C(\C)C(=O)NC1=C[C@@](O)(/C=C/C=C/C=C/C(=O)NC2=C(O)CCC2=O)[C@@H]2O[C@@H]2C1=O` [manumycin, N-[(1S,5S,6R)-5-hydroxy-5-[(1E,3E,5E)-7-[(2-hydroxy-5-oxo-1-cyclopenten-1-yl)amino]-7-oxo-1,3,5-heptatrien-1-yl]-2-oxo-7-oxabicyclo[4.1.0]hept-3-en-3-yl]-2E,4E,6R-trimethyl,2,4-decadienamide] here?
A: Its value is “less robust morphology”.

Q: And the telomere length (Restored cells; restored cell sample)?
A: The telomere length was “decreased”.

Q: And the “protein expression of restored cell samples” value (Restored cells; vs absence of manumycin)?
A: Its value is “elevated levels of all proteins investigated”.

Q: What about the “gene expression of restored cell samples” value (Restored cells; vs changes seen in the absence of manumycin) of the same compound?
A: The value was “did not display a change in expression levels”.

Q: What does the source list for `Nc1c(S(=O)(=O)O)cc(S(=O)(=O)[O-])c2cccc(O)c12.[Na+]` [FT-0640107]?
A: cell number (Aged TNCs; 1 μM, 72 hours, vs vehicle control and 25 μM, donor A04): increase in cell number; viability at 1 µM (Aged TNCs; Homo sapiens, 1 μM, 72 hours, donor A04): 96.3%; viability at 25 µM (Aged TNCs; Homo sapiens, 25 μM, 72 hours, donor A04): 93%; cell viability and number (Aged TNCs; donor A03, 48 or 72 hour): no significant difference
